Reference: ChEMBL document CHEMBL1201862, “PubChem BioAssay data set” (2004)
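A five-concentration, 48-hour dose response in 96-well plates underlies each endpoint, interpolated linearly between surrounding concentrations. Here, GI50 denotes the concentration required for 50% inhibition of growth.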 Calls of active or inactive are those of the source. No stated cut-off is given here; in the data, active = GI50 up to about 1.1 µM and inactive = higher.

What was measured:
Test in all cases: DTP human tumour cell line panel, 48 h
[1] = test system: MOLT-4
[2] = test system: OVCAR-3
[3] = test system: SW-620
[4] = test system: SF-268
[5] = test system: Malme-3M
[6] = test system: HOP-62
[7] = test system: HT-29
[8] = test system: HL-60
[9] = test system: U-251
[10] = test system: PC-3
[11] = test system: A549
[12] = test system: LOX IMVI
[13] = test system: HOP-92
[14] = test system: A498
[15] = test system: BT-549
[16] = test system: CAKI-1
[17] = test system: ACHN
[18] = test system: SNB-75
[19] = test system: HCT-15
[20] = test system: SK-MEL-28
[21] = test system: NCI-H23
[22] = test system: UACC-62
[23] = test system: RPMI-8226
[24] = test system: SK-OV-3
[25] = test system: M14
[26] = test system: K562
[27] = test system: SF-539
[28] = test system: Hs-578T
[29] = test system: SR
[30] = test system: COLO 205
[31] = test system: SNB-19
[32] = test system: HCT-116
[33] = test system: HCC 2998
[34] = test system: MDA-N
[35] = test system: NCI-H226
[36] = test system: OVCAR-5
[37] = test system: EKVX
[38] = test system: TK-10
[39] = test system: CCRF-CEM
[40] = test system: OVCAR-8
[41] = test system: SN12C
[42] = test system: OVCAR-4
[43] = test system: MCF7
[44] = test system: RXF 393
[45] = test system: SK-MEL-5
[46] = test system: KM12
[47] = test system: MDA-MB-231
[48] = test system: UO-31
[49] = test system: UACC-257
[50] = test system: IGROV-1
[51] = test system: DU-145
[52] = test system: T47D
[53] = test system: NCI/ADR-RES
[54] = test system: MDA-MB-435
[55] = test system: NCI-H522
[56] = test system: SF-295
[57] = test system: 786-0
[58] = test system: NCI-H460
[59] = test system: SK-MEL-2

CC(=O)C(=[N+]=[N-])C(=O)NCC#N
GI50 [1]: > 10 µM (inactive)
GI50 [2]: > 10 µM (inactive)
GI50 [3]: > 10 µM (inactive)
GI50 [4]: > 10 µM (inactive)
GI50 [5]: > 10 µM (inactive)
GI50 [6]: > 10 µM (inactive)
GI50 [7]: > 10 µM (inactive)
GI50 [8]: > 10 µM (inactive)
GI50 [9]: > 10 µM (inactive)
GI50 [10]: > 10 µM (inactive)
GI50 [11]: > 10 µM (inactive)
GI50 [12]: > 10 µM (inactive)
GI50 [13]: > 10 µM (inactive)
GI50 [14]: > 10 µM (inactive)
GI50 [15]: > 10 µM (inactive)
GI50 [16]: > 10 µM (inactive)
GI50 [17]: > 10 µM (inactive)
GI50 [18]: 0.441 µM (active)
GI50 [19]: > 10 µM
GI50 [20]: > 10 µM (inactive)
GI50 [21]: > 10 µM (inactive)
GI50 [22]: > 10 µM (inactive)
GI50 [23]: > 10 µM (inactive)
GI50 [24]: > 10 µM (inactive)
GI50 [25]: > 10 µM (inactive)
GI50 [26]: > 10 µM (inactive)
GI50 [27]: > 10 µM (inactive)
GI50 [28]: > 10 µM (inactive)
GI50 [29]: > 10 µM (inactive)
GI50 [30]: > 10 µM (inactive)
GI50 [31]: > 10 µM (inactive)
GI50 [32]: > 10 µM (inactive)
GI50 [33]: > 10 µM (inactive)
GI50 [34]: > 10 µM (inactive)
GI50 [35]: > 10 µM (inactive)
GI50 [36]: > 10 µM (inactive)
GI50 [37]: > 10 µM (inactive)
GI50 [38]: > 10 µM (inactive)
GI50 [39]: > 10 µM (inactive)
GI50 [40]: > 10 µM (inactive)
GI50 [41]: > 10 µM (inactive)
GI50 [42]: > 10 µM (inactive)
GI50 [43]: > 10 µM (inactive)
GI50 [44]: > 10 µM (inactive)
GI50 [45]: > 10 µM (inactive)
GI50 [46]: 6.93 µM (inactive)
GI50 [47]: > 10 µM (inactive)
GI50 [48]: > 10 µM (inactive)
GI50 [49]: > 10 µM (inactive)
GI50 [50]: > 10 µM (inactive)
GI50 [51]: > 10 µM (inactive)
GI50 [52]: > 10 µM (inactive)
GI50 [53]: > 10 µM (inactive)
GI50 [54]: > 10 µM (inactive)
GI50 [55]: > 10 µM (inactive)
GI50 [56]: > 10 µM (inactive)
GI50 [57]: > 10 µM (inactive)
GI50 [58]: > 10 µM (inactive)
GI50 [59]: > 10 µM (inactive)

O=c1c2nn3c(=O)n(-c4ccccc4)c(=O)c3nn2c(=O)n1-c1ccccc1
GI50 [1]: > 100 µM (inactive)
GI50 [2]: > 100 µM (inactive)
GI50 [3]: > 100 µM (inactive)
GI50 [4]: > 100 µM (inactive)
GI50 [5]: > 100 µM (inactive)
GI50 [6]: > 100 µM (inactive)
GI50 [7]: > 100 µM (inactive)
GI50 [8]: > 100 µM (inactive)
GI50 [9]: > 100 µM (inactive)
GI50 [10]: > 100 µM (inactive)
GI50 [11]: > 100 µM (inactive)
GI50 [12]: > 100 µM (inactive)
GI50 [13]: > 100 µM (inactive)
GI50 [14]: 50.4 µM (inactive)
GI50 [15]: > 100 µM (inactive)
GI50 [16]: > 100 µM (inactive)
GI50 [17]: > 100 µM (inactive)
GI50 [18]: 81.3 µM (inactive)
GI50 [19]: > 100 µM
GI50 [20]: > 100 µM (inactive)
GI50 [21]: > 100 µM (inactive)
GI50 [22]: > 100 µM (inactive)
GI50 [23]: > 100 µM (inactive)
GI50 [24]: > 100 µM (inactive)
GI50 [25]: > 100 µM (inactive)
GI50 [26]: > 100 µM (inactive)
GI50 [27]: > 100 µM (inactive)
GI50 [28]: > 100 µM (inactive)
GI50 [29]: > 100 µM (inactive)
GI50 [30]: > 100 µM (inactive)
GI50 [31]: > 100 µM (inactive)
GI50 [32]: > 100 µM (inactive)
GI50 [33]: > 100 µM (inactive)
GI50 [34]: > 100 µM (inactive)
GI50 [35]: > 100 µM (inactive)
GI50 [36]: > 100 µM (inactive)
GI50 [37]: > 100 µM (inactive)
GI50 [38]: > 100 µM (inactive)
GI50 [39]: 56 µM (inactive)
GI50 [40]: > 100 µM (inactive)
GI50 [41]: > 100 µM (inactive)
GI50 [42]: > 100 µM (inactive)
GI50 [43]: > 100 µM (inactive)
GI50 [44]: > 100 µM (inactive)
GI50 [45]: > 100 µM (inactive)
GI50 [46]: > 100 µM (inactive)
GI50 [47]: > 100 µM (inactive)
GI50 [48]: > 100 µM (inactive)
GI50 [49]: > 100 µM (inactive)
GI50 [50]: > 100 µM (inactive)
GI50 [51]: > 100 µM (inactive)
GI50 [52]: > 100 µM (inactive)
GI50 [53]: > 100 µM (inactive)
GI50 [54]: > 100 µM (inactive)
GI50 [55]: > 100 µM (inactive)
GI50 [56]: 54.1 µM (inactive)
GI50 [57]: > 100 µM (inactive)
GI50 [58]: > 100 µM (inactive)
GI50 [59]: > 100 µM (inactive)

C=C1C(=O)O[C@H]2C1C[C@@H](O)/C(C)=C/CC[C@@]1(C)O[C@H]21 (some centres not stated)
GI50 [1]: 6.93 µM (inactive)
GI50 [2]: 3.27 µM (inactive)
GI50 [3]: 4.81 µM (inactive)
GI50 [4]: 39 µM (inactive)
GI50 [5]: 4.08 µM (inactive)
GI50 [6]: > 59.6 µM (inactive)
GI50 [7]: 22.9 µM (inactive)
GI50 [8]: 2.87 µM (inactive)
GI50 [9]: 24.4 µM (inactive)
GI50 [10]: 23 µM (inactive)
GI50 [11]: > 55.1 µM (inactive)
GI50 [12]: 9.16 µM (inactive)
GI50 [13]: 8.89 µM (inactive)
GI50 [14]: 25 µM (inactive)
GI50 [15]: 8.04 µM (inactive)
GI50 [16]: 3.03 µM (inactive)
GI50 [17]: 9.27 µM (inactive)
GI50 [18]: 16.4 µM (inactive)
GI50 [19]: 12.1 µM
GI50 [20]: 15.2 µM (inactive)
GI50 [21]: 13.6 µM (inactive)
GI50 [22]: 24.7 µM (inactive)
GI50 [23]: 4.76 µM (inactive)
GI50 [24]: 49.7 µM (inactive)
GI50 [25]: 9.35 µM (inactive)
GI50 [26]: 6.37 µM (inactive)
GI50 [27]: 19.9 µM (inactive)
GI50 [28]: 31.3 µM (inactive)
GI50 [29]: 7.64 µM (inactive)
GI50 [30]: 4.93 µM (inactive)
GI50 [31]: 52 µM (inactive)
GI50 [32]: 8.93 µM (inactive)
GI50 [33]: 33.1 µM (inactive)
GI50 [34]: 10.3 µM (inactive)
GI50 [35]: > 54.3 µM (inactive)
GI50 [36]: > 39.4 µM (inactive)
GI50 [37]: 12.2 µM (inactive)
GI50 [38]: 12 µM (inactive)
GI50 [39]: 3.17 µM (inactive)
GI50 [40]: 15.2 µM (inactive)
GI50 [41]: 29.2 µM (inactive)
GI50 [42]: 11.4 µM (inactive)
GI50 [43]: 8.57 µM (inactive)
GI50 [44]: 7.62 µM (inactive)
GI50 [45]: 16.1 µM (inactive)
GI50 [46]: > 100 µM (inactive)
GI50 [47]: 18.6 µM (inactive)
GI50 [48]: 18.7 µM (inactive)
GI50 [49]: 13.1 µM (inactive)
GI50 [50]: 12.7 µM (inactive)
GI50 [51]: 20.7 µM (inactive)
GI50 [52]: 9.12 µM (inactive)
GI50 [53]: 30.5 µM (inactive)
GI50 [54]: 8.2 µM (inactive)
GI50 [55]: 2.97 µM (inactive)
GI50 [56]: > 55.1 µM (inactive)
GI50 [57]: 10.5 µM (inactive)
GI50 [58]: 22.4 µM (inactive)
GI50 [59]: 24.3 µM (inactive)
